“Also recorded” adds a separate entry of the source.
What was measured:
[1] = system: 5-HT1A serotonin receptor; conditions: cited from earlier work
[2] = system: 5-HT1A (a serotonin receptor subtype); conditions: Middlemiss et al., European J. of Pharmacol. 90 151 (1983); cited from earlier work
[3] = target: T1, 5-HT-1A serotonin receptor (Rattus norvegicus, UniProt P19327); assay: displacement of [3H]8-OH DPAT from the 5-HT-1A serotonin receptor; format: binding; conditions: for inhibition at 1 µM / Ki: [3H]8-OH DPAT; for inhibition at 1 µM: read-out: % Inhibition 1 μm 5 HT1A; for Ki: in parentheses after % inhibition, read-out: Ki 5 HT1A; for selectivity / separation of 5-HT1A vs D-2 binding (in words): 5-HT1A relative to D-2
T1 construct: 44: 1685-1696, 1985; from tissue
T1 sequence (P19327 1-422): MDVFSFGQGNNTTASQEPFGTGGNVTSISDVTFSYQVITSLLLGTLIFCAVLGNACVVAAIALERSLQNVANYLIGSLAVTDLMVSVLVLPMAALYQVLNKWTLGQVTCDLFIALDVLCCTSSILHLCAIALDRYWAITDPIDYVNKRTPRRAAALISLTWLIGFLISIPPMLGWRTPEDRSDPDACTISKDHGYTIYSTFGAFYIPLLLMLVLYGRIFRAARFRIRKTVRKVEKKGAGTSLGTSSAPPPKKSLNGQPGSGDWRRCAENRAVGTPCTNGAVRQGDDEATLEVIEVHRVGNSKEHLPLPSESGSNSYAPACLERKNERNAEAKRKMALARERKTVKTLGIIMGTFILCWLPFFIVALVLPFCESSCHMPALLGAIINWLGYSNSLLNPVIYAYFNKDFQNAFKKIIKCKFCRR
Text: The serotonergic properties of the compounds of this invention were established by standard pharmacologically accepted procedures involving the measurement of the compound's ability to displace [^3 H]8-OH DPAT (dipropylaminotetralin) from the 5-HT-1A serotonin receptor by the procedure of Hall et al., J. Neurochem. 44: 1685-1696, 1985.

D-2 dopamine receptor = assay: inhibition of 3H-spiroperidol binding, homogenized limbic brain tissue (D-2 dopamine receptor affinity); conditions: for % Inhibition 1 μM D-2: 3H-spiroperidol, limbic brain tissue
Protocol: The relatively low D-2 dopamine receptor affinity of the compounds of this invention was established by a modification of the procedure of Fields et al., Brain Res., 136, pp. 578-584 (1977) and Yamamura et al., eds. Neurotransmitter Receptor Binding, Raven Press, N.Y. (1978), wherein homogenized limbic brain tissue is incubated with ^3 H-spiroperidol and various concentrations of test compound, filtered, washed and shaken with Hydrofluor scintillation cocktail (National Diagnostics) and counted in a Packard 460 CD scintillation counter.

Row | SMILES | inhibition at 1 µM [3] | Ki [3] | % Inhibition 1 μM D-2 (D-2 dopamine receptor) | D-2 dopamine receptor binding/affinity (in words) (D-2 dopamine receptor) | 5-HT1A binding/affinity (in words) [3] | 5-HT1A receptor affinity of known agents (in words) [1] | 5-HT1A agonist activity (in words) [2] | selectivity / separation of 5-HT1A vs D-2 binding (in words) [3]
1 | O=C1c2ccccc2S(=O)(=O)N1CCCCN1CCN(c2ncccn2)CC1 [ipsapirone] |  |  |  |  |  | selective 5-HT1A serotonin receptor affinity |  | 
2 | CCCN(CCC)C1CCc2cccc(O)c2C1 (stereo not shown) [8-OH DPAT, 8-hydroxy-2-(di-n-propylamino)-tetralin] |  |  |  |  |  | selective 5-HT1A serotonin receptor affinity | selective 5-HT1A (a serotonin receptor subtype) agonist activity | 
3 | Oc1cccc2c1CC(N1CCN(c3cccc(C(F)(F)F)c3)CC1)CC2 (stereo not shown) [Compound 2, 1-(1,2,3,4-tetrahydro-8-hydroxy-2-naphthalenyl)-4-[3-(trifluromethyl)phenyl]piperazine] | 100% | 14 nM | 46% |  |  |  |  | 
4 | COc1cccc2c1CC(N1CCN(c3ncccn3)CC1)CC2 (stereo not shown) [Compound 3, 2-[4-(1,2,3,4-tetrahydro-8-methoxy-2-naphthalenyl)-1-piperazinyl]pyrimidine] | 84.6% | 63 nM | 3% |  |  |  |  | 
5 | CC1(C)CC(=O)N(CCCCN2CCN(c3ncccn3)CC2)C(=O)C1 [gepirone] |  |  |  |  |  | selective 5-HT1A serotonin receptor affinity |  | 
6 | COc1cccc2c1CC(N1CCN(c3cccc(C(F)(F)F)c3)CC1)CC2 (stereo not shown) [Compound 1, 1-(1,2,3,4-tetrahydro-8-methoxy-2-naphthalenyl)-4-[3-(trifluoromethyl)phenyl]piperazine] | 97% | 11 nM | 5% |  |  |  |  | 
7 | COc1ccccc1N1CCN(C2CCc3cccc(OC)c3C2)CC1 (stereo not shown) [Compound 5] | 4% |  | 72% | relatively high dopamine receptor binding | almost complete loss of serotonin receptor agonism |  |  | reverses the selective activity
8 | O=C1CC2(CCCC2)CC(=O)N1CCCCN1CCN(c2ncccn2)CC1 [buspirone] |  |  |  |  |  | potent affinity; also recorded: selective 5-HT1A serotonin receptor affinity |  | 

Now from value to molecule, other results behind:

Row | inhibition at 1 µM [3] | Ki [3] | % Inhibition 1 μM D-2 (D-2 dopamine receptor) | D-2 dopamine receptor binding/affinity (in words) (D-2 dopamine receptor) | 5-HT1A binding/affinity (in words) [3] | SMILES | 5-HT1A receptor affinity of known agents (in words) [1] | 5-HT1A agonist activity (in words) [2] | selectivity / separation of 5-HT1A vs D-2 binding (in words) [3]
9 | 87% |  | 72% | which property was retained |  | Oc1ccc2c(c1)CCC(N1CCN(c3cccc(C(F)(F)F)c3)CC1)C2 (stereo not shown) [Compound 10] |  |  | 
10 | 91% | 109 nM | 0% |  |  | Oc1cccc2c1CC(N1CCN(c3ncccn3)CC1)CC2 (stereo not shown) [Compound 4, 2-[4-(1,2,3,4-tetrahydro-8-hydroxy-2-naphthalenyl)-1-piperazinyl]pyrimidine] |  |  | most selective serotonin receptor binding
11 | 83% |  | 11% |  |  | COc1ccc2c(c1)CC(N1CCN(c3ncccn3)CC1)CC2 (stereo not shown) [Compound 8] |  |  | improved separation of properties with emphasis on 5-HT1A binding
12 | 93% |  | 65% | higher D-2 binding |  | COc1ccc2c(c1)CC(N1CCN(c3ccccc3OC)CC1)CC2 (stereo not shown) [Compound 7] |  |  | 
13 | 97% |  | 65% | increased D- 2 binding markedly |  | COc1ccc2c(c1)CCC(N1CCN(c3cccc(C(F)(F)F)c3)CC1)C2 (stereo not shown) [Compound 9] |  |  | 
14 | 44% |  |  |  | marked reduction in 5-HT1A binding | COc1ccc2c(c1)CCC(N1CCN(c3ncccn3)CC1)C2 (stereo not shown) [Compound 11] |  |  | 
15 | 77% |  | 49% | relative high dopamine receptor binding | reduced 5-HT1A agonism | COc1ccc2c(c1)CC(N1CCN(c3cccc(C(F)(F)F)c3)CC1)CC2 (stereo not shown) [Compound 6] |  |  | unacceptable separation of properties
16 | 15% |  | 7% | negligible D-2 binding | negligible activity | Oc1ccc2c(c1)CCC(N1CCN(c3ncccn3)CC1)C2 (stereo not shown) [Compound 12] |  |  | 

Reference: patent US4845221A, “Serotonergic substituted piperazinyl tetralins” (American Home Products Corporation, priority 1988, dated 1989)
